Assay results reported in ChEMBL document CHEMBL3507680, “University of Dundee, Gates Library screen for HepG2 cell viability”.

Test: Human HepG2 cell viability assay in 384 well format
Type: toxicity, cell-based
Design: dose 125 nL, time 70.5 hour; concentration not given beside the values
Conditions: HepG2 cells, read-out: Inhibition

Row | Compound | cytotoxicity at 70.5 h
1 | OC(CN1CCC(c2ccn[nH]2)CC1)c1cc(F)ccc1F (stereo unspecified) | -1.27%
2 | O=C(CCc1ccccc1)N1CC(n2cncn2)C1 | -7.88%
3 | CN1CCC(N(C)C(=O)c2cnc3c(cnn3C3CCCC3)c2)CC1 | -7.87%
4 | O=C(c1ccn(-c2ccc(F)cc2)n1)N1CCCC(n2ccnc2)C1 (stereo unspecified) | -6.02%
5 | CCc1nc(C2CCCN(C(=O)c3cn(C)nc3C)C2)no1 (stereo unspecified) | 36.3%
6 | CCc1ccc(CCC(=O)N2CCOCC2c2ncon2)cc1 (stereo unspecified) | -9.85%
7 | Cc1nc(CN(C)C2CCN(CC(=O)NC3CCOCC3)C2)no1 (stereo unspecified) | 4.94%
8 | CC(=O)N(Cc1noc(C2CC2)n1)C1CCN(Cc2cccnc2)C1 (stereo unspecified) | -9.51%
9 | Cc1cnn(CC2CN(Cc3nnc(-c4occc4C)o3)CCO2)c1 (stereo unspecified) | -18.4%
10 | Cc1ccccc1-n1ncc(C(=O)N2CCCC2c2cnn(C)c2)c1C (stereo unspecified) | -13.6%
11 | Cc1nc(CN(C)C2CCN(CC3CCCCC3)C2)no1 (stereo unspecified) | -11.6%
12 | N#Cc1ccc(CN2CCN(C(=O)c3cc(C4CC4)[nH]n3)CC2)cc1 | 0.0729%
13 | O=C(C1CCCCN1Cc1nc(-c2ccco2)no1)N1CCCC1 (stereo unspecified) | 4.12%
14 | O=C(NCCNc1ncccn1)C1CCN(C(=O)C2CC2)CC1 | -13%
15 | COC(=O)c1cccc(OCCn2nc(-c3cccs3)oc2=O)c1 | -21.5%
16 | O=C(C1CCCC1)N1CCN(Cc2nc(-c3ccco3)no2)CC1 | -9.97%
17 | CC(C)c1ncncc1C(=O)N1CCN(Cc2cscn2)CC1 | 22.6%
18 | CCN(CC)C(=O)c1nnn(-c2ccc(C)cc2)c1C1CC1 | -7.41%
19 | NC(=O)C1CN(C(=O)Nc2ccccc2-c2cccs2)CCO1 (stereo unspecified) | -1.53%
20 | Cc1cnn(CC2CN(Cc3nnc(C4CC4)o3)CCO2)c1 (stereo unspecified) | -5.68%
21 | NC(=O)C1CN(C(=O)Nc2ccccc2SC(F)(F)F)CCO1 (stereo unspecified) | -10.6%
22 | c1ccc2oc(CCCN3CCCC3Cn3cncn3)nc2c1 (stereo unspecified) | -15.6%
23 | Cc1nn(-c2ccccc2)nc1C(=O)N1CCCC1c1cnn(C)c1 (stereo unspecified) | -18.4%

Row | Compound | cytotoxicity at 70.5 h
24 | NC(=O)C1CN(C(=O)Nc2ccccc2N2CCCCCC2)CCO1 (stereo unspecified) | -17.5%
25 | O=C(c1ccc(Cl)c(Cl)c1)N1CCCC(n2cncn2)C1 (stereo unspecified) | -14%
26 | O=C(CN1CC(n2cccn2)C1)NCCc1c[nH]c2ccccc12 | -13.2%
27 | CN1CCOC(CN(C(=O)Cc2ccccc2F)c2nccs2)C1 (stereo unspecified) | 20.9%
28 | CN1CCOC(CN(C(=O)CC2CCCC2)c2nccs2)C1 (stereo unspecified) | 4.76%
29 | COc1cc(C(=O)NS(=O)(=O)c2cccc(C#N)c2)ccc1C | -7.93%
30 | Cc1cc(CC(=O)N(CC2CN(C)CCO2)c2nccs2)no1 (stereo unspecified) | -10.3%
31 | Cc1nn(CC(C)C)c(N(C)C)c1CNCc1cccc2c1OCO2 | 10.6%
32 | CC(C)c1noc(C(C)N2CCN(CCO)CC2)n1 (stereo unspecified) | -1.66%
33 | CN(Cc1nnc(C2CC2)n1C)C1CCN(Cc2ccon2)C1 (stereo unspecified) | -12.4%
34 | CC(C)(NCC(=O)NCCC#N)c1ccc2c(c1)OCCO2 | -10.6%
35 | Cc1nc(C)n(CC2CN(Cc3cccc(C#N)c3)CCO2)n1 (stereo unspecified) | -24.6%
36 | CN(Cc1nnc(C2CC2)n1C)C1CCN(Cc2ccc(F)cc2)C1 (stereo unspecified) | -6.24%
37 | Cc1cnn(CC2CCCN2Cc2nnc(Cc3ccccc3)o2)c1 (stereo unspecified) | 8%
38 | COc1c(CNCc2cccc(CS(C)(=O)=O)c2)c(C)nn1C | -17%
39 | Cc1nn(CC(C)C)c(N(C)C)c1CNCc1cc2ccccc2[nH]1 | 5.6%
40 | Cc1noc(CN(Cc2ccc3c(c2)OCO3)C2CCCC2)n1 | -13%
41 | CC(C)c1nc(C2CCCN(C(=O)Cc3cccnc3)C2)no1 (stereo unspecified) | -16.6%
42 | CC(C(=O)Nc1ccc(N2CCCC2)nc1)n1ccnc1 (stereo unspecified) | -11.6%
43 | Cn1ccc(C(=O)N2CCN(c3cc(C#N)ccn3)CC2)cc1=O | -7.65%
44 | COc1cc(CNCc2ccnc(N3CCOCC3)c2)cc(Cl)c1OC | -18.7%
45 | N#Cc1ccc(S(=O)(=O)NC(=O)C2CC2)c(C(F)(F)F)c1 | -13.8%
46 | CC(C(=O)Nc1cccc(N2CCCCC2)c1)n1cncn1 (stereo unspecified) | -6.3%
